From PMC4306520 (Journal of Medicinal Chemistry, 2014)

Legend:
BxPC-3 cells [1] = assay: Apoptosis assay; type: cell-based, human
[2] = test system: PANC-1/FASN and PANC-1/Vec cells; assay: Colony formation survival assay, PANC-1/FASN vs PANC-1/Vec; type: cell-based, human
FASN = assay: Western blot of FASN expression; type: cell-based, human
BxPC-3 cells [3] = assay: Intracellular pH; type: cell-based, human; conditions: BxPC-3, different concentrations, 72 h
BxPC-3 cells [4] = assay: MTT assay with palmitate supplementation; type: cell-based, human
[5] = test system: other Ser hydrolases in PANC-1 cell lysate; assay: Serine hydrolase FP probe displacement assay, other serine hydrolases; type: binding, human; conditions: 5 μM FP probe
BxPC-3 cells [6] = assay: Extracellular pH; type: cell-based, human; conditions: BxPC-3, 100 μM, 72 h, data not shown
[7] = biological target: FASN in PANC-1 cell lysate (Homo sapiens, UniProt P49327); assay: Serine hydrolase FP probe displacement assay, FASN; type: binding; conditions: 5 μM FP probe
FASN in PANC-1 cell lysate, sequence (P49327 whole entry): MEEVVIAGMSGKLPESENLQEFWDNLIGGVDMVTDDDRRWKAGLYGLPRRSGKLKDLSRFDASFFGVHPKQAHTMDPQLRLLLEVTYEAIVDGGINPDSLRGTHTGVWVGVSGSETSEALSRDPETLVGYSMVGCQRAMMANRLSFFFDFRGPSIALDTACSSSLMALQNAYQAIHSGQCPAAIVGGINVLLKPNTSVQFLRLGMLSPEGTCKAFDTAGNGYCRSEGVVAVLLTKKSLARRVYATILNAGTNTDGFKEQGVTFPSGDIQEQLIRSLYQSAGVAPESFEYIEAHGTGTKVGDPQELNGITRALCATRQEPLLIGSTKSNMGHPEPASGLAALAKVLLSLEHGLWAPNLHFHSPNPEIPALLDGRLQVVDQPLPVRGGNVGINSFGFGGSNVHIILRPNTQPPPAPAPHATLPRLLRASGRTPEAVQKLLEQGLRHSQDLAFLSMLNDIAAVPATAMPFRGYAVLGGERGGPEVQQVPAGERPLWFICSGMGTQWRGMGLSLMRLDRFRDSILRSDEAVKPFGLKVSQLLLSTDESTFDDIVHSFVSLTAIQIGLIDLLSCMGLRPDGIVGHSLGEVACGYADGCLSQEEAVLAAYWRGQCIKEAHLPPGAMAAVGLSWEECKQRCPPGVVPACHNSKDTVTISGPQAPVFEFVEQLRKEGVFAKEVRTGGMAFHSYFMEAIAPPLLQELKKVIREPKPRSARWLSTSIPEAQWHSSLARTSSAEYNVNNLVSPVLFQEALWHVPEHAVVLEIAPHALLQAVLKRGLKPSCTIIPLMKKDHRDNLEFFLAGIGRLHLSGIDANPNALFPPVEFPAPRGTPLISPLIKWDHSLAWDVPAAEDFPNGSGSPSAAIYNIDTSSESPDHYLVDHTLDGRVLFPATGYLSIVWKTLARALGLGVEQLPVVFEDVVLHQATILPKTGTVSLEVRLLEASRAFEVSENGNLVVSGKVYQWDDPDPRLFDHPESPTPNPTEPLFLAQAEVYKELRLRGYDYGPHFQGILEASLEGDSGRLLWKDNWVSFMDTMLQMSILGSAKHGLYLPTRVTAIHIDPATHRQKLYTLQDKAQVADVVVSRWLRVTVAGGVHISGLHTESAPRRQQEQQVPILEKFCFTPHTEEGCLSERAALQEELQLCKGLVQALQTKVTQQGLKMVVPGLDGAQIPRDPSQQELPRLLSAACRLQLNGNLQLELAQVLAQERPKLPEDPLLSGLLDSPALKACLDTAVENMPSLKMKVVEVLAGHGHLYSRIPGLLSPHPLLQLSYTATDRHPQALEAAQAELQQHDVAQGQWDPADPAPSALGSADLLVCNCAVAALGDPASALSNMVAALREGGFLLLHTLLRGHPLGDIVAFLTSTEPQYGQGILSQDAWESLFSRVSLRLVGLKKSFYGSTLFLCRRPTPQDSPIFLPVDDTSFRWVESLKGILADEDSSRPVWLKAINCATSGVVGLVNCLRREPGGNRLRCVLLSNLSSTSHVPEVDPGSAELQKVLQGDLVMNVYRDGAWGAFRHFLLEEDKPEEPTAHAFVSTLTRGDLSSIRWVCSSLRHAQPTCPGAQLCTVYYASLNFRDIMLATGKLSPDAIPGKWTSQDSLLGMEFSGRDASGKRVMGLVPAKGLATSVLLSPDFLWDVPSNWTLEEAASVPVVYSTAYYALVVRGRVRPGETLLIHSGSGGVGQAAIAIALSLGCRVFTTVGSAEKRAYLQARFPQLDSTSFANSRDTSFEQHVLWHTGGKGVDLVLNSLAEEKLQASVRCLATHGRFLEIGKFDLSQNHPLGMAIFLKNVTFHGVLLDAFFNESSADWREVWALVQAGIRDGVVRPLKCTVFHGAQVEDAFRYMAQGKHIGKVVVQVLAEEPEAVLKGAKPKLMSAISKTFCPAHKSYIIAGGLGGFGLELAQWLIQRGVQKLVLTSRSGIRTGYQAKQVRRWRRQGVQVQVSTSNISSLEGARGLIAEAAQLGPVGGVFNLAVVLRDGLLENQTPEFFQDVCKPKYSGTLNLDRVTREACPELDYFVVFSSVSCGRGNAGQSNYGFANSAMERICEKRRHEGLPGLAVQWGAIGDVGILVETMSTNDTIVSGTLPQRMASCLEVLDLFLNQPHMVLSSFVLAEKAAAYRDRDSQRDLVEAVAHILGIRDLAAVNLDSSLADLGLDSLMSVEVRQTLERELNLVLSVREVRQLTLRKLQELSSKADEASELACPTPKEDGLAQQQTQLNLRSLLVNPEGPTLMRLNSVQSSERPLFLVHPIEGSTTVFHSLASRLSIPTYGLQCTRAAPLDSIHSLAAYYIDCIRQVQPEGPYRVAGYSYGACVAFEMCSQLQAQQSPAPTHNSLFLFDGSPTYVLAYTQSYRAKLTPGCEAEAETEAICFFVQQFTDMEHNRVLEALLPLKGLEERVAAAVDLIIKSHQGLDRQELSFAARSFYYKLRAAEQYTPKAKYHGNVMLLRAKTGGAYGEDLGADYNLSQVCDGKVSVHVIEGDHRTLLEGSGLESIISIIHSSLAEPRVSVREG

| SMILES | effect of palmitate supplementation on lansoprazole-induced apoptosis (BxPC-3 cells [1]; 3.75 μM palmitate) | induction of apoptosis (DNA fragments, cleaved PARP-1) (BxPC-3 cells [1]; ELISA 72 h, PARP Western blot 24 h) | sensitivity of PANC-1/FASN cells versus PANC-1/Vec cells [2] | effect on total FASN level (FASN; lansoprazole treatment, Figure 4D) | effect on intracellular pH (BxPC-3 cells [3]) | effect of palmitate supplementation on lansoprazole cytotoxicity (BxPC-3 cells [4]; 3.75 μM palmitate) | effect on binding of FP probe to other Ser hydrolases [5] | effect on extracellular pH (BxPC-3 cells [6]) | inhibition of FP serine hydrolase probe labeling of FASN [7] | effect of palmitate on FASN expression (FASN; 3.75 μM palmitate, Figure 5B) | effect of palmitate alone on cell survival (BxPC-3 cells [4]; BxPC-3, 3.75 μM) |
| --- | --- | --- | --- | --- | --- | --- | --- | --- | --- | --- | --- |
| Cc1c(OCC(F)(F)F)ccnc1C[S+]([O-])c1nc2ccccc2[nH]1 (centres unmarked) [Lansoprazole] | reduced lansoprazole-induced apoptosis | dose-dependently caused formation of DNA fragments and cleaved PARP-1 | significantly more sensitive to lansoprazole than the control PANC-1/Vec cells | no effect on the total FASN level | no significant effect on intracellular pH | significantly increased cellular resistance to lansoprazole | no effect on the binding of the FP probe to other Ser hydrolases | no change in extracellular pH | inhibited labeling of FASN by the FP probe in a dose-dependent manner |  |  |
| CCCCCCCCCCCCCCCC(=O)O [palmitate] |  |  |  |  |  |  |  |  |  | did not reduce FASN expression | no significant effect on BxPC-3 cell survival |
